Where two headings read alike, the source gives them in different places.
Experiments:
HOP-62 = assay: NCI-60 drug screen (SRB), NSCLC line HOP-62; format: cell-based, human; conditions: for GI50 / CC50: Homo sapiens; for CC50: read-out: LC50 (the source's name)
Description: (§1) As a primary screening, seven selected compounds were submitted to the National Cancer Institute (NCI) cell lines screen for evaluation of their anticancer activity. From the data analysis, it follows that approximately 95% of the actives from the 60 cell lines screen can be identified. The detailed methods used for the 60 cell lines panel have been described elsewhere [54]–[59]. Briefly, cellular protein levels were determined after 48 hours of drug exposure by SRB colorimetry. Through the use of a time zero cell control, the cell growth can be determined for each cell line thus allowing calculations of GI50, TGI, and LC50. Comparison to plates not exposed to drug permits determination of concentration and times of exposure conferring GI50, TGI, and LC50. […] By these criteria, seven compounds reported from our compounds bank were all active and passed on for evaluation in the full panel of 60 human tumor cell lines. The panel is organized into nine subpanels representing diverse histology: leukemia, melanoma, and cancers of the lung, colon, kidney, ovary, breast, prostate, and central nervous system.

NCI-H226 = assay: NCI-60 drug screen (SRB), NSCLC line NCI-H226; format: cell-based, human; conditions: for GI50 / CC50: Homo sapiens; for CC50: read-out: LC50 (the source's name)
Description: as §1

NCI-H460 = assay: NCI-60 drug screen (SRB), NSCLC line NCI-H460; format: cell-based, human; conditions: for LC50 (concentration killing 50% of cells) / GI50: Homo sapiens
Description: as §1

A549 cells = assay: MTT cytotoxicity assay, A549 cells; format: cell-based; conditions: Homo sapiens, 48 h of drug exposure
Description: Non-small cell lung cancer cells A549 and Oct-4- and Nanog-overexpressed A549 clone (clone #3; A3), presented the properties of cancer stem-like cells, as well as epithelial-mesenchymal transdifferentiation, according to our previous study. They were grown in the same conditions as RPMI 1640 media supplemented with 10% fetal bovine serum (FBS), 100 units/mL penicillin, […] streptomycin, 1 mM sodium pyruvate, 2 mM l-glutamine and 1% non-essential amino acid (NEAA) in a humidified atmosphere with 5% CO2 at 37°C. Normal fibroblast cells HEL299 from American Type Culture Collection (ATCC) were grown in MEM media supplemented with 10% FBS, 100 units/mL penicillin, […] streptomycin, 1 mM sodium pyruvate, 2 mM l-glutamine and 1% NEAA, in a humidified atmosphere with 5% CO2 at 37°C.
The tetrazolium reagent (MTT; 3-(4,5-dimethylthiazol-2-yl)-2,5-diphenyl-tetrazolium bromide, USB) was designed to yield a colored formazan upon metabolic reduction by viable cells, [61]. Approximately 5×10^4 cells were plated onto each well of a 24-well plate and incubated in 5% CO2 at 37°C for 24 hours. To assess the in vitro cytotoxicity, each compound was dissolved in DMSO and prepared immediately before the experiments and then was diluted into the complete medium before being added to cell cultures. Test compounds were then added to the culture medium in various designated concentrations. After 48 hours, an amount of 100 µl of MTT was added to each well, and the samples were incubated at 37°C for 2 h. 100 µl DMSO was added to each well. The absorbency at 560 nm and reference absorbency at 670 nm were measured using an ELISA reader.

PARP-1 = target: T1, PARP-1 (Homo sapiens, UniProt P09874); assay: PARP inhibitory assay (histone-coated plate, colorimetric); format: biochemical
T1 construct: purchased
T1 sequence (P09874 whole entry): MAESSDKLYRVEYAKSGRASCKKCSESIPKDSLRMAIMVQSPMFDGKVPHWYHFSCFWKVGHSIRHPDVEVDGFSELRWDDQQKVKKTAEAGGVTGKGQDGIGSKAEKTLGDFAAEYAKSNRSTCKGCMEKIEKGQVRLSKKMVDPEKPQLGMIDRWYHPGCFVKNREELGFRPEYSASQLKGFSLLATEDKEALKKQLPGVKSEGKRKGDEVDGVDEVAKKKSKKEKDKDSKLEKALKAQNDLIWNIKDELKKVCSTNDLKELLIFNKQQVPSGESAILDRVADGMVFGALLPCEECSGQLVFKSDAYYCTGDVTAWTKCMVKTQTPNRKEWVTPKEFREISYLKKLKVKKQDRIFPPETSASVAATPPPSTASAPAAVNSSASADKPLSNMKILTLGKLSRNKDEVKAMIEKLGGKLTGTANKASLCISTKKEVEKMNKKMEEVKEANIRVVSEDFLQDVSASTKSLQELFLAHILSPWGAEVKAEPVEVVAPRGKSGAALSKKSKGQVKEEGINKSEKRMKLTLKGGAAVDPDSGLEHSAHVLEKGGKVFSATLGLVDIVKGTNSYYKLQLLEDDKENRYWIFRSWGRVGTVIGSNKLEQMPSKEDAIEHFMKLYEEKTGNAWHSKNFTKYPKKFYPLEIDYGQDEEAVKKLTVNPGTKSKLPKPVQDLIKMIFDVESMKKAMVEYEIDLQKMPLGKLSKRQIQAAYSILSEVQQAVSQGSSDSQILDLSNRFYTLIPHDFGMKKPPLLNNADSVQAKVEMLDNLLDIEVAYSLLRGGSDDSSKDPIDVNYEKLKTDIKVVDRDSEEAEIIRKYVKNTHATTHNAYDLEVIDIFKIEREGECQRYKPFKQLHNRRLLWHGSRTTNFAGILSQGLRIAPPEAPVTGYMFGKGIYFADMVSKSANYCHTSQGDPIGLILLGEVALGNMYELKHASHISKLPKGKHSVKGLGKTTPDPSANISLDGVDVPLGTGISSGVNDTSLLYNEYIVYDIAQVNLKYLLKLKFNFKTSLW
Description: We used histone-coated 96-well plate treated with seven putative PARP-1 inhibitors or well-known PARP-1 inhibitors (3-AB), and then added PARP enzyme to each well. PARP enzyme catalyzes the NAD-dependent addition of poly (ADP-ribose) to histone, and diluted Strp-HRP could bind to PARylation histone. TACS-Sapphire™ yielded blue under the HRP existence. In order to systematically evaluate the potential anticancer activity, the compounds were tested for their cytotoxicity in vitro against 60 human cancer lines in the NCI anticancer drug screen as well as for dose response curves and telomerase activity. Cell growth was analyzed by the MTT assay, with differences between dose-response curves analyzed non-parametrically. Telomerase activity was detected by a modified version of the PCR-based assay and TRAP assay. […] However, PARP inhibitory effects had no difference at 1 and 10 µM. As described above, NSC746364, NSC746366 and NSC749232 show dose-dependency only at low concentrations. […] NSC747854 had dose-dependent PARP inhibitory manners at three different concentrations, and reached the maximum inhibitory effect of 86% at 10 µM (Table 4). […] In this investigation, we continued to focus our attention on the role of NSC747854 and to understand the basis of pharmacophore selectivity. Of particular note is the significant difference with these selected compounds, compared with that of 3-AB and PJ-34. […] An electron-rich aromatic ring system, including a carboxamide group, should have at least a hydrogen atom on the amide nitrogen. The amidinium moiety is known to contribute to the stabilization of DNA recognition element through electrostatic and hydrogen bonding interactions. Therefore, hydrogen bonds are frequently used as recognition elements due to their directionality and also due to being attractive factors to the biological activity (Figure 1). Many classes of drugs have substantial curvature, high DNA affinity, binding to the minor-groove or major-groove, interference with DNA-associated enzymes (e.g. telomerase), and Poly (ADP-ribose) polymerase, PARP. […] This approach greatly expands the utility of the substituents and related pharmacophore for the construction of drugs in general. Therefore, it is desirable to design PARP inhibitors in accordance with various anticancer parameters. It was first reported that anthraquinone analogues are potent human PARP inhibitors.
Strip wells were removed from the wrapper and 50 µl of 1X PARP Buffer was added to each well to rehydrate the histones. They were incubated at room temperature for 30 minutes. The 1X PARP buffer was removed from the wells by tapping the strip wells on paper towels. The serial dilutions of inhibitor of interest were added to appropriate wells. The diluted PARP enzyme (0.5 unit/well) was then added to the wells containing inhibitor. They were incubated for 10 minutes at room temperature. The PARP Enzyme-High Specific Activity (PARP-HAS) standard was serially diluted in cold micro-tubes with 1X PARP buffer such that the total activity was 1 unit/25 µl, 0.5 units/25 µl, 0.25 units/25 µl, 0.1 units/25 µl, 0.05 units/25 µl, 0.025 units/25 µl, and 0.01 units/25 µl, respectively. The 25 µl of each standard was added to triplicate wells. The 25 µl of 1X PARP cocktail were distributed into each well by using a multichannel pipettor. The final reaction volume is 50 µl. They were incubated along with the strip wells at room temperature for 60 minutes. The strip wells were washed 2 times with 1X PBS +0.1% Triton X-100 (200 µl/well) followed by 2 washes with 1X PBS. All the liquid was removed following each wash by tapping strip wells onto paper towels. The 50 µl diluted Strep-HRP were added per well. They were incubated at room temperature for 60 minutes. The strip wells were washed 2 times with 1X PBS +0.1% Triton X-100 (200 µl/well) followed by 2 washes with 1X PBS. All the liquid was removed following each wash by tapping strip wells onto paper towels. […]

[1] = 48 hours drug exposure, SRB, read-out: GI50
[2] = NCI in vitro 60-cell lines Drug Screen, read-out: -Log GI50 (converted)

| SMILES | TGI (HOP-62; 48 hours drug exposure, SRB) | GI50 (HOP-62; [1]) | CC50 (HOP-62; 48 hours drug exposure, SRB) | GI50 (HOP-62; [2]) | TGI (NCI-H226; 48 hours drug exposure, SRB) | GI50 (NCI-H226; [1]) | CC50 (NCI-H226; 48 hours drug exposure, SRB) | GI50 (NCI-H226; [2]) | TGI (NCI-H460; 48 hours drug exposure, SRB) | LC50 (concentration killing 50% of cells) (NCI-H460; 48 hours drug exposure, SRB) | GI50 (NCI-H460; [1]) | GI50 (NCI-H460; [2]) | IC50 (A549 cells) | inhibition at 0.1 µM (PARP-1) | inhibition at 1 µM (PARP-1) | inhibition at 10 µM (PARP-1; 10 µM) | PARP inhibitory activity (%) (PARP-1; 10 µM) |
| --- | --- | --- | --- | --- | --- | --- | --- | --- | --- | --- | --- | --- | --- | --- | --- | --- | --- |
| CN1CCN(Cc2nc3ccc4c(c3[nH]2)C(=O)c2ccccc2C4=O)CC1 [NSC749235] | 30.5 µM | 19.4 µM | 95.4 µM | 9.33 µM | 31.1 µM | 8.32 µM | > 100 µM | 8.32 µM | 15.2 µM | 45.1 µM | 3.79 µM | 3.8 µM | 10.6 µM | 40% | 28% | 58% | – |
| CCN(CC)CCC(=O)Nc1ccc2c(c1)C(=O)c1cc(NC(=O)CCN(CC)CC)ccc1C2=O [NSC746365] | 5.80 µM | 1.73 µM | 24 µM | 1.74 µM | 20.3 µM | 6.56 µM | 45.9 µM | 6.61 µM | 4.85 µM | > 100 µM | 1.9 µM | 1.91 µM | 7.66 µM | 50% | 56% | 51% | – |
| CN(C)CC(=O)Nc1ccc2c(c1)C(=O)c1cc(NC(=O)CN(C)C)ccc1C2=O [NSC746364] | 20.5 µM | 4.56 µM | 60.8 µM | 4.57 µM | 32.4 µM | 15.5 µM | 67.4 µM | 15.5 µM | 3.35 µM | 8.2 µM | 1.37 µM | 1.38 µM | 4.49 µM | 31% | 54% | 56% | – |
| O=C(CCN1CCCC1)Nc1ccc2c(c1)C(=O)c1cc(NC(=O)CCN3CCCC3)ccc1C2=O [NSC746366] | 11.6 µM | 2.48 µM | 45.4 µM | 2.51 µM | 12.6 µM | 2.72 µM | 58.3 µM | 2.69 µM | >100 µM | > 100 µM | 2.69 µM | 2.69 µM | 7.76 µM | 16% | 45% | 47% | – |
| CN(C)CCCSc1nc2ccc3c(c2[nH]1)C(=O)c1ccccc1C3=O [NSC747854] | 32.3 µM | 5.9 µM | 48.9 µM | 5.89 µM | 22.1 µM | 3.74 µM | 58.7 µM | 3.72 µM | 12.8 µM | – | 2.13 µM | 2.14 µM | 12.2 µM | 30% | 57% | – | 65% |
| Cc1ccc(C(=O)Nc2c(NC(=O)CCl)ccc3c2C(=O)c2ccccc2C3=O)cc1 [NSC749232] | 9.49 µM | 2.97 µM | 24.4 µM | 2.95 µM | 20.8 µM | 8.81 µM | 49.1 µM | 8.91 µM | 14.1 µM | 34.1 µM | 5.81 µM | 5.75 µM | 6.62 µM | 42% | 51% | 52% | – |

— article PMC3581553, “New Approaches of PARP-1 Inhibitors in Human Lung Cancer Cells and Cancer Stem-Like Cells by Some Selected Anthraquinone-Derived Small Molecules” (PLoS ONE, 2013)
